Here are results for 15 molecules from patent US20110046056A1, “APOA-1 PEPTIDE MIMETICS” (priority 2007, published 2011).

Where a SMILES comes first, the peptide text is derived from it. Bridges are numbered along the chain shown (N, C = ends). Where no end group is shown, it is not given here. [ ]: non-standard residue; d: D form. Gly(oct-7-en-1-yl) = C=CCCCCCC[C@H](N)C(=O)O; dGly(6-heptenyl) = C=CCCCCC[C@@H](N)C(=O)O; Ala(5-hexenyl) = C=CCCCCC[C@H](N)C(=O)O; dNle(6-vinyl) = C=CCCCC[C@@H](N)C(=O)O; Gla = N[C@@H](CC(C(=O)O)C(=O)O)C(=O)O; R5H = not defined here; Aib = CC(C)(N)C(=O)O

The target of assay [1] is T1, ABCA1 cholesterol transporter protein (Mus musculus, UniProt P41233).
T1 construct: endogenous in cells
T1 sequence (P41233 whole entry): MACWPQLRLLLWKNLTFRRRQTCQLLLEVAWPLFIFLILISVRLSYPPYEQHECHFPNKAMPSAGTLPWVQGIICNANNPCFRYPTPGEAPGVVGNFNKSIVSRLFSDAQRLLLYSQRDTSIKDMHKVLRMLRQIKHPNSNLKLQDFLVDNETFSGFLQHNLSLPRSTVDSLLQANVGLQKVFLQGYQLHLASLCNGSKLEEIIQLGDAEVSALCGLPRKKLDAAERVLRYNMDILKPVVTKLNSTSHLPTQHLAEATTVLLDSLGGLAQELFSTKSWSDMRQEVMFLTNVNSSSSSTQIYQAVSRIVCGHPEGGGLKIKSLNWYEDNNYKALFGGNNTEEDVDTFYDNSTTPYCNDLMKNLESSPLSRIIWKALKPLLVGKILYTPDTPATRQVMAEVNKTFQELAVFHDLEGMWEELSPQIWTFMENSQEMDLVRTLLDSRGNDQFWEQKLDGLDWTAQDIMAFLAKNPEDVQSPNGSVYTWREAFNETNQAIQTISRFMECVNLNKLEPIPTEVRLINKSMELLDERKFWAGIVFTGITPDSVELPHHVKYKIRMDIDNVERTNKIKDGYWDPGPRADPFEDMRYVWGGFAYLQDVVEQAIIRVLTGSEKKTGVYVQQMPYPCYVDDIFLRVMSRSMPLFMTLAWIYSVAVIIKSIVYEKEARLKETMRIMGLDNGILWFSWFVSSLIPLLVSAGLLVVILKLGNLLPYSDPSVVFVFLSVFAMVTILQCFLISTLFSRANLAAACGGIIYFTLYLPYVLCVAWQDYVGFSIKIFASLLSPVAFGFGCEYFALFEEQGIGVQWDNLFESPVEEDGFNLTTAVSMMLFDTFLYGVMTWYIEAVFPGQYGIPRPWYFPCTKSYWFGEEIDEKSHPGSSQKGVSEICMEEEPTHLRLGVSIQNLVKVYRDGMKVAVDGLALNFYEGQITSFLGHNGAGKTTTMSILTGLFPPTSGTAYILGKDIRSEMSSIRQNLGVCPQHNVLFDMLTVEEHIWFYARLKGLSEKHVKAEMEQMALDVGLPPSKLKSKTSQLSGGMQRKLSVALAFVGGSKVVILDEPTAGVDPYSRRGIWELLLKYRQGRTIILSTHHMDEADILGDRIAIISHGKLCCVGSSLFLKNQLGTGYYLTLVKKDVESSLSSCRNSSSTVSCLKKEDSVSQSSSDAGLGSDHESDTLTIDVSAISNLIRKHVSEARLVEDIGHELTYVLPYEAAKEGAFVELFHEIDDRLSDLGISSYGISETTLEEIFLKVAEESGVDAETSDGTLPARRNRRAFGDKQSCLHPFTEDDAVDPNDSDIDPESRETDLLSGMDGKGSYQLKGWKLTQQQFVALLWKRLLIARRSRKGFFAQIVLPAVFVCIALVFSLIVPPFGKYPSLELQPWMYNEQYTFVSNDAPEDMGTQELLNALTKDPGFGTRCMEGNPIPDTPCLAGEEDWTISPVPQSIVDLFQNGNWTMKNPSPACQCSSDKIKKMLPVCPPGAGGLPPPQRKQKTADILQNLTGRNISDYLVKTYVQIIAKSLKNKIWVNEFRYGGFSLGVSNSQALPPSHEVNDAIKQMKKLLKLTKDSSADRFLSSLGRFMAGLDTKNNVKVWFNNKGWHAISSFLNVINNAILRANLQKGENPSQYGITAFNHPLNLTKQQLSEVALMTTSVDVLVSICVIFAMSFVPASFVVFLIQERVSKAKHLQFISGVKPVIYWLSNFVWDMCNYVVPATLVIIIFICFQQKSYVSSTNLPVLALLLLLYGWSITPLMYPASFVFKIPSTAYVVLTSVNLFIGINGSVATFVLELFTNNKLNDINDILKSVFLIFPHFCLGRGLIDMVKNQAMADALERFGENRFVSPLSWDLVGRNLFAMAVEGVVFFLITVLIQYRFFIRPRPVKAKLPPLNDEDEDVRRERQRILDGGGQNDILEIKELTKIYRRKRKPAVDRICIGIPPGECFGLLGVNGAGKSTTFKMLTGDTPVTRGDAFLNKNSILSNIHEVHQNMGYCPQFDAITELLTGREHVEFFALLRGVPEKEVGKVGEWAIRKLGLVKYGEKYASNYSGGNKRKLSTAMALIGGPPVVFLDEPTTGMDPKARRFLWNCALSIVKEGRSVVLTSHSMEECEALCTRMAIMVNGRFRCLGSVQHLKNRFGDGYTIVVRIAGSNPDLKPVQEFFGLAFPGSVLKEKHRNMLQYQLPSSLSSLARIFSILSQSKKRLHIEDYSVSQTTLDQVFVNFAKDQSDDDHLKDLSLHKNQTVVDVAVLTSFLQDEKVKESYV
The assay can be described thus: ABCA1-dependent cholesterol efflux from RAW mouse macrophage cells (in vitro RCT assay). The format is cell-based. The note with it: for EC50: read-out: EC50 in the cholesterol efflux assay (RCT in vitro assay). An excerpt:
Peptides of the present invention were designed based on amphipathic properties and their abilities to solubilize phospholipids and promote cholesterol efflux. The most direct functional measurement of efficacy for the ApoA-1 peptide mimetic is its capacity to improve the efflux of cholesterol from the cell. The RAW and J774 cell lines are reliable mouse macrophage cell lines frequently used in the art for this purpose. […] The RAW cell line is preferred and recited in the description below.
In the present assay, the RAW cells are plated at 1.5×10^5 cells/200 μl/well/48-well plate in DMEM complete medium (with 10% FBS from INVITROGEN and 1% penicillin-streptomycin-glutamine from GIBCO) and ^3H-cholesterol at 5 μCi/ml. After 24 hours incubation in a moist 37° C. atmosphere with 5% CO2, the spent medium is removed, the cells are washed once with serum-free DMEM (0.1% fatty acid free bovine serum albumin replaces the FBS), and fresh serum-free medium (200 μl) is added to each well. After overnight incubation in the serum-free medium to allow the cellular cholesterol pools to equilibrate, the spent medium is removed, and fresh serum-free medium is added with/without CPT-cAMP (150 μM final). Eight-point serial titrations of the peptide/s being tested are added at this time (duplicate titrations in plain medium without cAMP and duplicate titrations in medium containing cAMP).
After 24 hours incubation in the various conditions, the medium is harvested from each well and 50 μl aliquots are counted. The cells are then lysed by adding 500 μl of HEPES/Triton lysis buffer to each well. The lysis is facilitated by freezing and thawing once. After thawing, the lysates are mixed well and 50 μl aliquots are counted.
The percent efflux of each peptide in each medium condition (±cAMP) is calculated by dividing the total counts in the medium by the sum of the total counts in the medium and lysate. The percent efflux seen with plain medium is subtracted from the percent efflux seen with the cAMP-stimulated efflux to yield the reported ABCA1-stimulated values. EC50 values are determined using PRISM software (Table 2).

Assay [2] deals with ATP-binding cassette transporter A1 (ABCA1) (mouse, UniProt P41233 1-2261). In words: cell-based or functional assay.
ATP-binding cassette transporter A1 (ABCA1), sequence (P41233 whole entry): as above

For “6 (Ac-PVLDEFREKLNE[Aib]LEALKQKLK; not fully specified (C-terminus)) [compound 6]”, the “ABCA1-DEPENDENT CHOLESTEROL EFFLUX, % at one concentration” value in assay [1] (AT 100 µM / @ 100) is recorded as 6% AT 100 UM.

As for “7 (Ac-PVLDEFREKLNE[Aib]LE[Aib]LKQKLK; not fully specified (C-terminus)) [compound 7]”, the “ABCA1-DEPENDENT CHOLESTEROL EFFLUX, % at one concentration” value in assay [1] (AT 150 µM) is given as 5% AT 150 UM.

In the case of “11 (Ac-PVLDEFREKLNE[R5H]LEA[R5H]KQKLK; staple 13-17; reading uncertain) [compound 11]”, in assay [1] (AT 30 µM / @ 30), the “ABCA1-DEPENDENT CHOLESTEROL EFFLUX, % at one concentration” value is on record as less than 2% AT 30 UM.

On to “22 (Ac-PVLDEFREKLNEELEALKQXLK; not fully specified (residue 20, C-terminus); printed as PVLDEFREKLNEELEALKQR7HLK) [compound 22]”, for which the “ABCA1-DEPENDENT CHOLESTEROL EFFLUX, % at one concentration” value in assay [1] (AT 100 µM / @ 100) is reported as 1.4% @ 100.

The term EC50 denotes the concentration that produces a half-maximal response. Take `CCCCCCCCCCCCC(NC(=O)[C@H](CCC(=O)O)NC(=O)[C@H](CC(=O)O)NC(=O)[C@H](CC(C)C)NC(=O)[C@@H](NC(=O)[C@@H]1CCCN1C(C)=O)C(C)C)C(=O)N[C@@H](CCCNC(=N)N)C(=O)N[C@@H](CCC(=O)O)C(=O)N[C@@H](CCCCN)C(=O)N[C@@H](CC(C)C)C(=O)N[C@@H](CC(N)=O)C(=O)N[C@@H](CCC(=O)O)C(=O)N[C@@H](CCC(=O)O)C(=O)N[C@@H](CC(C)C)C(=O)N[C@@H](CCC(=O)O)C(=O)N[C@@H](C)C(=O)N[C@@H](CC(C)C)C(=O)N[C@@H](CCCCN)C(=O)N[C@@H](CCC(N)=O)C(=O)N[C@@H](CCCCN)C(=O)N[C@@H](CC(C)C)C(=O)N[C@@H](CCCCN)C(N)=O` (single isomer, unassigned) [SEQ ID NO 37, PVLDE-(RS)12H3-REKLNEELEALKQKLK]: in assay [1], the EC50 was in the range of 100 to 400 nM.

With `CCCCCCCCCCCCC(NC(=O)[C@H](CCC(=O)O)NC(=O)[C@H](CC(N)=O)NC(=O)[C@H](CC(C)C)NC(=O)[C@H](CCCCN)NC(=O)[C@H](CCC(=O)O)NC(=O)[C@H](CCCNC(=N)N)NC(=O)[C@H](Cc1ccccc1)NC(=O)[C@H](CCC(=O)O)NC(=O)[C@H](CC(=O)O)NC(=O)[C@H](CC(C)C)NC(=O)[C@@H](NC(=O)[C@@H]1CCCN1C(C)=O)C(C)C)C(=O)N[C@@H](CC(C)C)C(=O)N[C@@H](CCC(=O)O)C(=O)N[C@@H](C)C(=O)N[C@@H](CC(C)C)C(=O)N[C@@H](CCCCN)C(=O)N[C@@H](CCC(N)=O)C(=O)N[C@@H](CCCCN)C(=O)N[C@@H](CC(C)C)C(=O)N[C@@H](CCCCN)C(N)=O` (single isomer, unassigned) [SEQ ID NO 38, PVLDEFREKLNE-(RS)12H3-LEALKQKLK], the 50% effective concentration (EC50) in assay [1] was 200 to 400 nM.

Regarding `CC(=O)N1CCC[C@H]1C(=O)N[C@H](C(=O)N[C@@H](CC(C)C)C(=O)N[C@@H](CC(=O)O)C(=O)N[C@@H](CCC(=O)O)C(=O)N[C@@H](Cc1ccccc1)C(=O)N[C@@H](CCCNC(=N)N)C(=O)N[C@@H](CCC(=O)O)C(=O)N[C@@H](CCCCN)C(=O)N[C@@H](CC(C)C)C(=O)N[C@@H](CC(N)=O)C(=O)N[C@@H](CCC(=O)O)C(=O)NC(C)(C)C(=O)N[C@@H](CC(C)C)C(=O)N[C@@H](CC(C(=O)O)C(=O)O)C(=O)N[C@@H](C)C(=O)N[C@@H](CC(C)C)C(=O)N[C@@H](CCCCN)C(=O)N[C@@H](CCC(N)=O)C(=O)N[C@@H](CCCCN)C(=O)N[C@@H](CC(C)C)C(=O)N[C@@H](CCCCN)C(N)=O)C(C)C` [SEQ ID NO 4, PVLDEFREKLNEAIBLGLAALKQKLK] (Ac-PVLDEFREKLNE[Aib]L[Gla]ALKQKLK-NH2; C-terminus assumed), in assay [1], the EC50 worked out at 41000 nM.

Take `C=CCCCCC[C@H](NC(=O)[C@H](CCC(=O)O)NC(=O)[C@H](CC(N)=O)NC(=O)[C@H](CC(C)C)NC(=O)[C@H](CCCCN)NC(=O)[C@H](CCC(=O)O)NC(=O)[C@H](CCCN=C(N)N)NC(=O)[C@@H](CCCCC=C)NC(=O)[C@H](CCC(=O)O)NC(=O)[C@H](CC(=O)O)NC(=O)[C@H](CC(C)C)NC(=O)[C@@H](NC(=O)[C@@H]1CCCN1C(C)=O)C(C)C)C(=O)N[C@@H](CC(C)C)C(=O)N[C@@H](CCC(=O)O)C(=O)N[C@@H](C)C(=O)N[C@@H](CC(C)C)C(=O)N[C@@H](CCCCN)C(=O)N[C@@H](CCC(N)=O)C(=O)N[C@@H](CCCCN)C(=O)N[C@@H](CC(C)C)C(=O)N[C@@H](CCCCN)C(N)=O` [SEQ ID NO 13, PVLDER6HREKLNES7HLEALKQKLK] (Ac-PVLDE[dNle(6-vinyl)]REKLNE[Ala(5-hexenyl)]LEALKQKLK-NH2): the 50% effective concentration (EC50) in assay [1] was determined as 400 nM.

As to `C=CCCCC[C@@H](NC(=O)[C@H](CCC(=O)O)NC(=O)[C@H](CC(N)=O)NC(=O)[C@H](CC(C)C)NC(=O)[C@H](CCCCN)NC(=O)[C@H](CCC(=O)O)NC(=O)[C@H](CCCN=C(N)N)NC(=O)[C@H](Cc1ccccc1)NC(=O)[C@H](CCC(=O)O)NC(=O)[C@H](CC(=O)O)NC(=O)[C@H](CC(C)C)NC(=O)[C@@H](NC(=O)[C@@H]1CCCN1C(C)=O)C(C)C)C(=O)N[C@@H](CC(C)C)C(=O)N[C@@H](CCC(=O)O)C(=O)N[C@@H](C)C(=O)N[C@@H](CC(C)C)C(=O)N[C@@H](CCCCN)C(=O)N[C@@H](CCC(N)=O)C(=O)N[C@@H](CCCCN)C(=O)N[C@@H](CC(C)C)C(=O)N[C@@H](CCCCN)C(N)=O` [SEQ ID NO 18, PVLDEFREKLNER6HLEALKQKLK] (Ac-PVLDEFREKLNE[dNle(6-vinyl)]LEALKQKLK-NH2), the EC50 in assay [1] was 18000 nM.

On to `C=CCCCCC[C@@H](NC(=O)[C@H](CCC(=O)O)NC(=O)[C@H](CC(N)=O)NC(=O)[C@H](CC(C)C)NC(=O)[C@H](CCCCN)NC(=O)[C@H](CCC(=O)O)NC(=O)[C@H](CCCN=C(N)N)NC(=O)[C@H](Cc1ccccc1)NC(=O)[C@H](CCC(=O)O)NC(=O)[C@H](CC(=O)O)NC(=O)[C@H](CC(C)C)NC(=O)[C@@H](NC(=O)[C@@H]1CCCN1C(C)=O)C(C)C)C(=O)N[C@@H](CC(C)C)C(=O)N[C@@H](CCC(=O)O)C(=O)N[C@@H](C)C(=O)N[C@@H](CC(C)C)C(=O)N[C@@H](CCCCN)C(=O)N[C@@H](CCC(N)=O)C(=O)N[C@@H](CCCCN)C(=O)N[C@@H](CC(C)C)C(=O)N[C@@H](CCCCN)C(N)=O` [SEQ ID NO 21, PVLDEFREKLNER7HLEALKQKLK] (Ac-PVLDEFREKLNE[dGly(6-heptenyl)]LEALKQKLK-NH2), for which the EC50 in assay [1] was 7200 nM.

For `C=CCCCCC[C@H](NC(=O)[C@H](CCC(=O)O)NC(=O)[C@H](CC(N)=O)NC(=O)[C@H](CC(C)C)NC(=O)[C@H](CCCCN)NC(=O)[C@H](CCC(=O)O)NC(=O)[C@H](CCCNC(=N)N)NC(=O)[C@H](Cc1ccccc1)NC(=O)[C@H](CCC(=O)O)NC(=O)[C@H](CC(=O)O)NC(=O)[C@H](CC(C)C)NC(=O)[C@@H](NC(=O)[C@@H]1CCCN1C(C)=O)C(C)C)C(=O)N[C@@H](CC(C)C)C(=O)N[C@@H](CCC(=O)O)C(=O)N[C@@H](C)C(=O)N[C@@H](CC(C)C)C(=O)N[C@@H](CCCCN)C(=O)N[C@@H](CCC(N)=O)C(=O)N[C@@H](CCCCN)C(=O)N[C@@H](CC(C)C)C(=O)N[C@@H](CCCCN)C(N)=O` [SEQ ID NO 29, PVLDEFREKLNES7HLEALKQKLK] (Ac-PVLDEFREKLNE[Ala(5-hexenyl)]LEALKQKLK-NH2), the EC50 in assay [1] turned out to be 2000 nM.

On to `C=CCCCCCC[C@H](NC(=O)[C@H](CCC(=O)O)NC(=O)[C@H](CC(N)=O)NC(=O)[C@H](CC(C)C)NC(=O)[C@H](CCCCN)NC(=O)[C@H](CCC(=O)O)NC(=O)[C@H](CCCN=C(N)N)NC(=O)[C@H](Cc1ccccc1)NC(=O)[C@H](CCC(=O)O)NC(=O)[C@H](CC(=O)O)NC(=O)[C@H](CC(C)C)NC(=O)[C@@H](NC(=O)[C@@H]1CCCN1C(C)=O)C(C)C)C(=O)N[C@@H](CC(C)C)C(=O)N[C@@H](CCC(=O)O)C(=O)N[C@@H](C)C(=O)N[C@@H](CC(C)C)C(=O)N[C@@H](CCCCN)C(=O)N[C@@H](CCC(N)=O)C(=O)N[C@@H](CCCCN)C(=O)N[C@@H](CC(C)C)C(=O)N[C@@H](CCCCN)C(N)=O` [SEQ ID NO 32, PVLDEFREKLNES8HLEALKQKLK] (Ac-PVLDEFREKLNE[Gly(oct-7-en-1-yl)]LEALKQKLK-NH2), for which, in assay [1], the EC50 was determined as 600 nM.

B1: R5H [K9-E13]R5H OPEN (peptide)
peptide: Ac-PVLDEFRE[R5H]LNE[R5H]LEALKQKLK
modifications: reading uncertain
Regarding B1, the “ABCA1-dependent cholesterol efflux EC50” value in assay [2] is 46000 nM.

B2: D-CONS[R7H^13] (peptide)
peptide: Ac-[dP][dV][dL][dD][dE][dF][dR][dE][dK][dL][dN][dE][dGly(6-heptenyl)][dL][dE][dA][dL][dK][dQ][dK][dL][dK]
As for B2, the “ABCA1-dependent cholesterol efflux EC50” value in assay [2] is 1100 nM.

B3: R5H [E13-L17]R5H OPEN (peptide)
peptide: Ac-PVLDEFREKLNE[R5H]LEA[R5H]KQKLK
modifications: reading uncertain
On to B3, for which the “ABCA1-dependent cholesterol efflux, % at 30 uM” value in assay [2] is less than 3%.
